# Tests used:
# [1] = tested on: caterpillars of the armyworm (Spodoptera frugiperda); test: Spodoptera frugiperda spray test (SPODFR); assay type: in vivo; conditions: maize leaf discs, after 7 days
# Outline: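 Maize leaf discs sprayed with compound in acetone/DMF with alkylaryl polyglycol ether emulsifier (1000 ppm) in water, dried, then infested with armyworm caterpillars. Mortality (%) scored after 7 days; 100% = all caterpillars killed, 0% = none killed.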
# [2] = tested on: greenhouse red spider mite (Tetranychus urticae); test: Tetranychus urticae spray test, OP-resistant (TETRUR); assay type: in vivo; conditions: bean leaf discs, after 6 days
# Outline: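 Bean leaf discs carrying all stages of OP-resistant Tetranychus urticae were sprayed with compound formulated in acetone/dimethylformamide and diluted in water with 1000 ppm alkylaryl polyglycol ether emulsifier. Mortality (% efficacy, 100% = all mites killed) scored after 6 days.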
# [3] = tested on: green peach aphid (Myzus persicae); test: Myzus persicae spray test (MYZUPE); assay type: in vivo; conditions: Chinese cabbage leaf discs, after 6 days
# Outline: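 Chinese cabbage leaf discs infested with all aphid stages sprayed with compound in acetone/DMF with alkylaryl polyglycol ether emulsifier in water. Efficacy (% aphids killed; 100% all dead, 0% none) scored after 6 days.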
# [4] = tested on: larvae of the mustard beetle (Phaedon cochleariae); test: Phaedon cochleariae spray test (PHAECO); assay type: in vivo; conditions: Chinese cabbage leaf discs, after 7 days
# Outline: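 Compound dissolved in acetone/dimethylformamide with alkylaryl polyglycol ether emulsifier, made up in water containing 1000 ppm emulsifier, then diluted to test concentrations and sprayed against mustard beetle larvae. Efficacy (% larvae killed) scored after 7 days.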
# [5] = tested on: adult dog ticks (Rhipicephalus sanguineus); test: Rhipicephalus sanguineus in vitro contact test with adult brown dog ticks (T2); conditions: after 48 h
# Outline: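 Acetone solutions coated onto test tube walls and floor, giving 5 μg/cm^2 at 900 ppm. Five to ten adult ticks held per tube in the dark at room temperature for 48 h, then heated at 45-50° C for up to 5 min; efficacy is the percentage of dead or moribund ticks unable to climb away.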
# [6] = tested on: cattle ticks (Boophilus microplus) Parkhurst strain, SP-resistant; test: Boophilus microplus dip test (BOOPMI Dip); assay type: in vivo; conditions: application rate 100 ppm, assessed after 7 days
# Method: B. Boophilus microplus-dip Test (BOOPMI Dip)
# Test animals: cattle ticks (Boophilus microplus) Parkhurst strain, SP-resistant
# Solvent: dimethyl sulphoxide
# 10 mg of active compound are dissolved in 0.5 ml of dimethyl sulphoxide. For the purpose of preparing a suitable formulation, the active compound solution is diluted with water to the concentration desired in each case.
# This active compound preparation is pipetted into tubes. 8-10 adult engorged female cattle ticks (Boophilus microplus) are transferred into a further tube with holes. The tube is immersed into the active compound formulation, and all ticks are completely wetted. After the liquid has run out, the ticks are transferred on filter discs into plastic dishes and stored in a climate-controlled room.
# The activity is assessed after 7 days by laying of fertile eggs. Eggs whose fertility is not visible from the outside are stored in a climate-controlled cabinet until the larvae hatch after about 42 days. An efficacy of 100% means that none of the ticks has laid any fertile eggs; 0% means that all eggs are fertile.
# [7] = tested on: adult cat fleas (Ctenocephalides felis); test: Ctenocephalides felis in vitro contact test with adult cat fleas (T1); conditions: after 48 h
# Outline: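 Test compound was dissolved in acetone p.a. (9 mg per 1 ml) and diluted as needed. 250 μl was spread evenly over the inner walls and floor of a 25 ml test tube by rotating on an orbital shaker for 2 h at 30 rpm. Once the solvent evaporated, 5-10 adult Ctenocephalides felis were added. Tubes were capped with a perforated plastic lid and kept horizontal at room temperature and ambient humidity.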
# [8] = logP determination by HPLC on a reversed-phase column (C18), EEC Directive 79/831 Annex V.A8; assay type: physicochemical; conditions: HPLC on reversed-phase column (C18), acetonitrile/water with formic acid, EEC Directive 79/831 Annex V.A8
# Outline: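 Retention on a C18 reversed-phase column (Zorbax Eclipse Plus, 1.8 micron) was used, eluting with acetonitrile/water, each containing formic acid. The gradient ran from 10% to 95% acetonitrile over 4.25 min, then held 1.25 min, at 55° C and 2.0 ml/min, with MS detection.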
# [9] = tested on: adult cat fleas (Ctenocephalides felis); test: Ctenocephalides felis oral test (CTECFE); assay type: in vivo; conditions: application rate 100 ppm in citrated cattle blood; after 2 days
# Outline: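 About 20 unfed adult cat fleas fed through parafilm membrane on citrated cattle blood containing compound (DMSO stock diluted in blood to test concentration). Kill % scored after 2 days (100% = all fleas dead).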
# [10] = tested on: L1 larvae of the Australian sheep blowfly (Lucilia cuprina); test: Lucilia cuprina test (LUCICU); assay type: in vivo; conditions: application rate 100 ppm; after 2 days
# Outline: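 About 20 L1 larvae placed in a vessel with minced horsemeat plus compound (DMSO concentrate diluted with water to the desired concentration). Kill in % scored after 2 days, 100% meaning all larvae dead.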
# [11] = tested on: adult houseflies (Musca domestica); test: Musca domestica test (MUSCDO); assay type: in vivo; conditions: application rate 100 ppm; after 2 days
# Outline: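 Compound dissolved in DMSO and diluted with water to the test concentration, applied with sugar solution on a sponge; 10 adult houseflies per vessel. Mortality scored after 2 days as % kill (100% all dead, 0% none).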
# [12] = tested on: engorged adult female cattle ticks (Boophilus microplus); test: Boophilus microplus injection test (BOOPMI Inj); assay type: in vivo; conditions: application rate 20 μg/animal; injection into abdomen; assessed after 7 days
# Outline: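 DMSO solution of compound (1 μl) injected into the abdomen of 5 engorged adult female ticks, which are then held in a climate-controlled room. After 7 days, efficacy is scored from laying of fertile eggs, with unclear eggs kept until larval hatch (~42 days); 100% means no fertile eggs, 0% all fertile.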
SMILES,efficacy in % ([1]; application rate 100 g/ha),efficacy in % ([2]; application rate 100 g/ha),efficacy in % ([3]; application rate 100 g/ha),efficacy in % ([4]; application rate 100 g/ha),efficacy (dead or moribund ticks) ([5]; application rate 1 μg/cm^2),efficacy (dead or moribund ticks) ([5]; application rate 5 μg/cm^2),efficacy (laying of fertile eggs) [6],efficacy (dead or moribund fleas) ([7]; application rate 1 μg/cm^2),efficacy (dead or moribund fleas) ([7]; application rate 5 μg/cm^2),logP [8],efficacy in % ([1]; application rate 500 g/ha),efficacy (kill in %) [9],efficacy in % ([2]; application rate 500 g/ha),efficacy (kill in %) [10],efficacy in % ([3]; application rate 500 g/ha),efficacy in % ([4]; application rate 500 g/ha),efficacy (kill in %) [11],efficacy (laying of fertile eggs) [12]
CC(C)NC(=O)c1cc(-c2cnn(-c3c(C(F)(F)F)c(C(F)(F)C(F)(F)F)nn3C)c2)ccc1Cl [Ic-113],100%,100%,90%,100%,80%,100%,100%,100%,100%,4.01,,,,,,,,
Cn1cc(NC(=O)c2cc(-c3cnn(-c4c(C(F)(F)F)c(C(F)(F)C(F)(F)F)nn4C)c3)ccc2Cl)cn1 [Ic-166],,,,,100%,100%,100%,100%,100%,,100%,100%,100%,100%,90%,100%,100%,100%
CNC(=O)C1(N(C)C(=O)c2cc(-c3cnn(-c4c(C(F)(F)F)c(C(F)(F)C(F)(F)F)nn4C)c3)ccc2Cl)CC1 [Ic-97],,,,,,,90%,100%,100%,3.58,100%,100%,100%,100%,100%,100%,100%,100%
C=C=CCNC(=O)c1cc(-c2cnn(-c3c(C(F)(F)F)c(C(F)(F)C(F)(F)F)nn3C)c2)ccc1Cl [Ic-111],100%,100%,100%,100%,100%,100%,100%,100%,100%,4.04,,,,,,,,
C#CCNC(=O)c1cc(-c2cnn(-c3c(C(F)(F)F)c(C(F)(F)C(F)(F)F)nn3C)c2)ccc1Cl [Ic-109],100%,100%,100%,100%,100%,100%,100%,100%,100%,3.69,,,,,,,,
COCCNC(=O)c1cc(-c2cnn(-c3c(C(F)(F)F)c(C(F)(F)C(F)(F)F)nn3C)c2)ccc1Cl [Ic-139],,,,,,,100%,100%,100%,,100%,100%,100%,,100%,100%,,100%
